According to US20210238136A1, “AZETIDINE DERIVATIVE, AND PRODRUG THEREOF” (DAIICHI SANKYO COMPANY, LIMITED, priority 2018, published 2021):
Structures can show the parent of a compound that is named as a salt.

Each compound was assayed on activated T cells (CD4+ T cells from mouse spleen) (assay: 3H-thymidine uptake in activated T cells). Conditions: T-cell; mouse spleen CD4+ T cells activated with Dynabeads Mouse T-Activator CD3/CD28; read-out: IC50 (3H-thymidine uptake, proliferation of activated T cells).
Assay type: cell-based, mouse (C57BL/6J)
Experimental: Effect of Test Substance on ^3H-Thymidine Uptake in Activated T Cells
The effect of test substance on ^3H-thymidine uptake by activation was evaluated using T cells from mouse spleen. The spleen was removed from euthanized C57BL/6J mice, and finely sliced, then triturated on a cell strainer (40 μm mesh), and cells were collected by centrifugation. The collected splenocytes were treated with Cold lyser containing 0.17 M NH4Cl for 5 minutes to hemolytically remove red blood cells and then washed. The resulting cells were used as the splenocytes. From the splenocytes, CD4+ T cells were isolated using an EasySep Mouse CD4+ T cell isolation kit (STEMCELL Technologies Inc.). The CD4+ T cells were seeded into 96-well round-bottom plates. To the plates, test substance or Vehicle was added, and Dynabeads Mouse T-Activator CD3/CD28 (Thermo Fisher Scientific Inc.) was added, then the cells were cultured at 37° C. under 5% CO2. After 24 hours of culture, ^3H-Thymidine (PerkinElmer Inc.) diluted with medium was added to each well, then the cells were further cultured at 37° C. under 5% CO2 overnight. To measure ^3H-Thymidine uptake into the nuclei of the cells, the cells were collected into filter plates UniFilter-96 GF/B (PerkinElmer Inc.) using a FilterMate Universal Harvester (PerkinElmer Inc.). The filter plates were placed in a dryer and left still for 2 hours or more. Then, scintillation cocktail MicroScint-O (PerkinElmer Inc.) was added to the plates, and radioactivity was measured with TopCount NXT (PerkinElmer Inc.). With the radioactivity of the test substance-free group set as 100% and the radioactivity of the non-activation group as 0%, the relative value (proliferation rate, % of vehicle) of the radioactivity of each well to which test substance was added was calculated. The value of % of vehicle was incorporated into analysis software Prism (Version 5.0, GraphPad Software), the “Nonlinear Regression Log (inhibitor) vs Reaction Variable Inclination” was selected, and then sigmoid fitting with restrictions of Bottom=0 and Top=100 was performed to calculate 50% inhibitory concentration (IC50).

Structure (SMILES) | IC50 [nM]
CC1(Oc2ccccc2)CN(S(=O)(=O)c2cccc(C[C@H](N)C(=O)O)c2)C1 [Example 30] | 1100
NC(=O)c1cccc(OC2(c3ccccc3)CN(S(=O)(=O)c3cccc(C[C@H](N)C(=O)O)c3)C2)c1 [Example 15] | 2.9
N[C@@H](Cc1cccc(S(=O)(=O)N2CC(Oc3cccc(F)c3)(c3ccc(F)cc3)C2)c1)C(=O)O [Example 1, (S)-2-Amino-3-(3-((3-(3-fluorophenoxy)-3-(4-fluorophenyl)azetidin-1-yl)sulfonyl)phenyl)propanoic acid] | 1.2
N#Cc1ccccc1OC1(c2ccccc2)CN(S(=O)(=O)c2cccc(C[C@H](N)C(=O)O)c2)C1 [Example 18, (S)-2-Amino-3-(3-((3-(2-cyanophenoxy)-3-phenylazetidin-1-yl)sulfonyl)phenyl)propanoic acid] | 2.9
N[C@@H](Cc1cccc(S(=O)(=O)N2CC(Oc3ccccc3)(c3ccccc3)C2)c1)C(=O)O [Example 24] | 0.49
[2H]c1c([2H])c([2H])c(C2(Oc3cccc(F)c3)CN(S(=O)(=O)c3cccc(C[C@H](N)C(=O)O)c3)C2)c([2H])c1[2H] [Example 28] | 2.3
N[C@@H](Cc1cccc(S(=O)(=O)N2CC(Oc3ccccc3F)(c3ccccn3)C2)c1)C(=O)O [Example 34] | 19
N[C@@H](Cc1cccc(S(=O)(=O)N2CC(Oc3ccccc3)(C3CC3)C2)c1)C(=O)O [Example 31] | 210
N[C@@H](Cc1cccc(S(=O)(=O)N2CC(Oc3cccc(Cl)c3)(c3ccccc3)C2)c1)C(=O)O [Example 3, (S)-2-Amino-3-(3-((3-(3-chlorophenoxy)-3-phenylazetidin-1-yl)sulfonyl)phenyl)propanoic acid] | 3.1
N[C@@H](Cc1cccc(S(=O)(=O)N2CC(Oc3cccnc3)(c3ccccc3)C2)c1)C(=O)O [Example 22] | 8.7
N[C@@H](Cc1cccc(S(=O)(=O)N2CC(OC3CC3)(c3ccccc3)C2)c1)C(=O)O [Example 39] | 140
N[C@@H](Cc1cccc(S(=O)(=O)N2CC(Oc3cccc(Br)c3)(c3ccccc3)C2)c1)C(=O)O [Example 8, (S)-2-Amino-3-(3-((3-(3-bromophenoxy)-3-phenylazetidin-1-yl)sulfonyl)phenyl)propanoic acid] | 3
N[C@@H](Cc1cccc(S(=O)(=O)N2CC(Oc3ccncc3)(c3ccccc3)C2)c1)C(=O)O [Example 23] | 16
N[C@@H](Cc1cccc(S(=O)(=O)N2CC(Oc3ccccc3)(C(F)(F)F)C2)c1)C(=O)O [Example 29] | 180
N[C@@H](Cc1cccc(S(=O)(=O)N2CC(Oc3ccccc3C(F)(F)F)(c3ccccc3)C2)c1)C(=O)O [Example 2] | 15
N[C@@H](Cc1cccc(S(=O)(=O)N2CC(Oc3ccccc3F)(c3ccc(F)cc3)C2)c1)C(=O)O [Example 4, (S)-2-Amino-3-(3-((3-(2-fluorophenoxy)-3-(4-fluorophenyl)azetidin-1-yl)sulfonyl)phenyl)propanoic acid] | 2.6
Cc1ccc(OC2(c3ccccc3)CN(S(=O)(=O)c3cccc(C[C@H](N)C(=O)O)c3)C2)cc1 [Example 9] | 4.3
N[C@@H](Cc1cccc(S(=O)(=O)N2CC(c3ccccc3-c3ccccc3)C2)c1)C(=O)O [Example 36] | 78
N[C@@H](Cc1cccc(S(=O)(=O)N2CC(Oc3cccc(F)c3)(c3ccccc3F)C2)c1)C(=O)O [Example 13] | 3
N[C@@H](Cc1cccc(S(=O)(=O)N2CC(Oc3ccccc3-c3ccccc3Cl)C2)c1)C(=O)O [Example 38] | 34
N[C@@H](Cc1cccc(S(=O)(=O)N2CC(Oc3ccc(F)cc3)(c3ccc(F)cc3)C2)c1)C(=O)O [Example 6, (S)-2-Amino-3-(3-((3-(4-fluorophenoxy)-3-(4-fluorophenyl)azetidin-1-yl)sulfonyl)phenyl)propanoic acid] | 1.2

Structure (SMILES) | IC50 [nM]
N[C@@H](Cc1cccc(S(=O)(=O)N2CC(Oc3ccccc3)(c3ccccn3)C2)c1)C(=O)O [Example 33] | 7.8
N[C@@H](Cc1cccc(S(=O)(=O)N2CC(Oc3ccccc3Br)(c3ccccc3)C2)c1)C(=O)O [Example 5, (S)-2-Amino-3-(3-((3-(2-bromophenoxy)-3-phenylazetidin-1-yl)sulfonyl)phenyl)propanoic acid] | 3.2
N[C@@H](Cc1cccc(S(=O)(=O)N2CC(Oc3ccccc3Cl)(c3ccccc3)C2)c1)C(=O)O [Example 7, (S)-2-Amino-3-(3-((3-(2-chlorophenoxy)-3-phenylazetidin-1-yl)sulfonyl)phenyl)propanoic acid] | 4.1
N[C@@H](Cc1cccc(S(=O)(=O)N2CC(Oc3ccc(F)c(Cl)c3)(c3ccccc3)C2)c1)C(=O)O [Example 11] | 20
N[C@@H](Cc1cccc(S(=O)(=O)N2CC(Cc3ccccc3)(c3ccccc3)C2)c1)C(=O)O [Example 16] | 68
Cc1ccccc1-c1ccccc1C1CN(S(=O)(=O)c2cccc(C[C@H](N)C(=O)O)c2)C1 [Example 37] | 85
CC(C)(C)CC1(Oc2ccccc2)CN(S(=O)(=O)c2cccc(C[C@H](N)C(=O)O)c2)C1 [Example 25] | 92
N[C@@H](Cc1cccc(S(=O)(=O)N2CC(Oc3ccccc3)(c3cccc(F)c3)C2)c1)C(=O)O [Example 26] | 2.5
N[C@@H](Cc1cccc(S(=O)(=O)N2CC(Oc3ccc(C(F)(F)F)cc3)(c3ccccc3)C2)c1)C(=O)O [Example 12] | 9.6
N[C@@H](Cc1cccc(S(=O)(=O)N2CC(Oc3ccc(F)cc3)(c3ccccn3)C2)c1)C(=O)O [Example 43] | 8.6
N[C@@H](Cc1cccc(S(=O)(=O)N2CC(Oc3cccc(F)c3)(c3ccccn3)C2)c1)C(=O)O [Example 35] | 17
N#Cc1ccc(OC2(c3ccccc3)CN(S(=O)(=O)c3cccc(C[C@H](N)C(=O)O)c3)C2)cc1 [Example 40] | 2.2
N[C@@H](Cc1cccc(S(=O)(=O)N2CC(Oc3cccc(C(F)(F)F)c3)(c3ccccc3)C2)c1)C(=O)O [Example 21] | 2.5
N[C@@H](Cc1cccc(S(=O)(=O)N2CC(Oc3ccccc3)(c3nccs3)C2)c1)C(=O)O [Example 32] | 11
N#Cc1cccc(OC2(c3ccccc3)CN(S(=O)(=O)c3cccc(C[C@H](N)C(=O)O)c3)C2)c1 [Example 20] | 3
N[C@@H](Cc1cccc(S(=O)(=O)N2CC(Oc3ccc(F)cc3)(c3ccccc3F)C2)c1)C(=O)O [Example 14] | 30
N[C@@H](Cc1cccc(S(=O)(=O)N2CC(Oc3ccc(Br)cc3)(c3ccccc3)C2)c1)C(=O)O [Example 19] | 3
N[C@@H](Cc1cccc(S(=O)(=O)N2CC(Oc3ccc(F)c(F)c3)(c3ccccc3)C2)c1)C(=O)O [Example 10, (S)-2-Amino-3-(3-((3-(3,4-difluorophenoxy)-3-phenylazetidin-1-yl)sulfonyl)phenyl)propanoic acid] | 21
NC(=O)c1ccc(OC2(c3ccccc3)CN(S(=O)(=O)c3cccc(C[C@H](N)C(=O)O)c3)C2)cc1 [Example 17, (S)-2-Amino-3-(3-((3-(4-carbamoylphenoxy)-3-phenylazetidin-1-yl)sulfonyl)phenyl)propanoic acid hydrochloride] | 1.2
N[C@@H](Cc1cccc(S(=O)(=O)N2CC(Oc3ccccc3)(c3ccccc3F)C2)c1)C(=O)O [Example 27] | 2.9
